According to patent publication US10059687B2, “Histone demethylase inhibitors” (CELGENE QUANTICEL RESEARCH, INC., priority 2015, dated 2018):

Experiments:
[1] = tested on: Jurkat cells; test: Jurkat (T-ALL) cell line proliferation assay (Cell-MTS Assay); type: cell-based; settings: Homo sapiens, 168 hr incubation, cell gives A/B enantiomer values, read-out: Cellular IC50
Excerpt: The Jurkat (T-ALL) cell line proliferation assay (Cell-MTS Assay) is a colorimetric cellular assay to assess the ability of KDM small molecule inhibitors to effect the proliferation of the established human acute T cell leukemia cancer cell line Jurkat.
This Cell-MTS assay is a 7-day plate-based colorimetric assay which quantifies the amount of newly generated NADH in the presence and absence of test compound. These NADH levels are used as a proxy for the quantification of cancer cell proliferation.
The established cancer cell line Jurkat with a verified p53 mutation were purchased from American Type Culture Collection (ATCC) and routinely passaged according to ATCC published protocols. For routine assay these cells were seeded at a density of 10,000 cells per 96-well. 24 hr after plating, cells received an 11-point dilution of test compound with final concentration ranges from 10 μM to 0.15 nM. Cells were incubated in the presence of compound for 168 hr at 37° C., 5% CO2. At the end of this compound incubation period, 80 μl of media is removed and 20 μL of CellTiter 96® AQueous Non-Radioactive Cell Proliferation Assay solution (Promega) is added. The cells were incubated until the OD490 reached >0.6. IC50 values are calculated using the IDBS XLfit software package and include background subtracted OD490 values and normalization to DMSO controls. Cellular proliferation IC50 values are uploaded and archived using the Chem Biography Platform.

[2] = tested on: esophageal squamous cell carcinoma KYSE-150 cells; test: Cellular IC50 in KYSE-150 cells; type: cell-based; settings: Homo sapiens, one class given per A and B pair
Excerpt: Table 7 provides IC50 values of various compounds disclosed herein, tested in cellular human esophageal squamous cell carcinoma KYSE-150 cells: […]

[3] = biological target: Jarid1B (Homo sapiens (Human), UniProt Q9UGL1); test: In vitro enzyme inhibition assay for Jarid1B activity (TR-FRET); type: biochemical
Jarid1B, sequence (Q9UGL1 whole entry, species assumed): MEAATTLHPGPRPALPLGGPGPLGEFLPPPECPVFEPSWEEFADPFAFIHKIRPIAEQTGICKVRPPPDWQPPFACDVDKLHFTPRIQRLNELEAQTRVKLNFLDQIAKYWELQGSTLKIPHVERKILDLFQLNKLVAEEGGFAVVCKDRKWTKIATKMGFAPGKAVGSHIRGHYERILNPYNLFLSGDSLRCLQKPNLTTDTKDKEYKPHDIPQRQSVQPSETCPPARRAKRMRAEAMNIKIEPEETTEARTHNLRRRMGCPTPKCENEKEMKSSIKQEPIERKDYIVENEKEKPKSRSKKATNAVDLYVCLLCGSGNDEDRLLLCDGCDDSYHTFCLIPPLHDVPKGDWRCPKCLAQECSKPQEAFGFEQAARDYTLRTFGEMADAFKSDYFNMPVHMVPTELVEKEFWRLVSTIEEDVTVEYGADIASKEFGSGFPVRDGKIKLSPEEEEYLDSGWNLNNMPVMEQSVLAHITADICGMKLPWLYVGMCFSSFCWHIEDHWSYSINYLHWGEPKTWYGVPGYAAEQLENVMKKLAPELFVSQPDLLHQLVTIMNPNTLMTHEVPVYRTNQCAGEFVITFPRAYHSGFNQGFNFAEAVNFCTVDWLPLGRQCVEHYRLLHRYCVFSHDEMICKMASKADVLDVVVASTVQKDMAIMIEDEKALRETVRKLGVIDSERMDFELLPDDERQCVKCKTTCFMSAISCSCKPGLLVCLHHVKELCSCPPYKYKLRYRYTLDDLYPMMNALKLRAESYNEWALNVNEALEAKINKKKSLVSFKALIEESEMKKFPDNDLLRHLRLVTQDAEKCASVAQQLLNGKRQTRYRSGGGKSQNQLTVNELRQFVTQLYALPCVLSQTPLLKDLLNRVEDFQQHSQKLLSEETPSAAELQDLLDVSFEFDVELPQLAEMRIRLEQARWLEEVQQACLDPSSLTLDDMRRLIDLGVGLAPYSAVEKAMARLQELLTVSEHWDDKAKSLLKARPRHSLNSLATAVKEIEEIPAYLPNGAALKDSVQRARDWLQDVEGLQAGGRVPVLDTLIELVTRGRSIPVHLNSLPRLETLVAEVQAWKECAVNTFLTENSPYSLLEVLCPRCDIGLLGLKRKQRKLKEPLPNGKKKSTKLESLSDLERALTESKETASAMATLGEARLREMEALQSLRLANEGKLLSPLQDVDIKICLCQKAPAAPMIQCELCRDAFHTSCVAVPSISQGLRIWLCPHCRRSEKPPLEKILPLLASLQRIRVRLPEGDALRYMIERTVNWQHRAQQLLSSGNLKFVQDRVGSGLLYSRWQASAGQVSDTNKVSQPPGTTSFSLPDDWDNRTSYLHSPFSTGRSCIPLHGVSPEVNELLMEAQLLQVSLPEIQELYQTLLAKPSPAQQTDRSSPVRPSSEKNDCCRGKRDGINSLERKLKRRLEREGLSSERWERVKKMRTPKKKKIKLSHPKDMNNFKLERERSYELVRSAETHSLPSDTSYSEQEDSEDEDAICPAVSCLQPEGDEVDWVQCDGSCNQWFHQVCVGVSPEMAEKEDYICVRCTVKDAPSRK

[4] = biological target: JMJD2C (Homo sapiens (Human), UniProt Q9H3R0); test: In vitro enzyme inhibition assay for JMJD2C activity (TR-FRET); type: biochemical
JMJD2C, sequence (Q9H3R0 2-372): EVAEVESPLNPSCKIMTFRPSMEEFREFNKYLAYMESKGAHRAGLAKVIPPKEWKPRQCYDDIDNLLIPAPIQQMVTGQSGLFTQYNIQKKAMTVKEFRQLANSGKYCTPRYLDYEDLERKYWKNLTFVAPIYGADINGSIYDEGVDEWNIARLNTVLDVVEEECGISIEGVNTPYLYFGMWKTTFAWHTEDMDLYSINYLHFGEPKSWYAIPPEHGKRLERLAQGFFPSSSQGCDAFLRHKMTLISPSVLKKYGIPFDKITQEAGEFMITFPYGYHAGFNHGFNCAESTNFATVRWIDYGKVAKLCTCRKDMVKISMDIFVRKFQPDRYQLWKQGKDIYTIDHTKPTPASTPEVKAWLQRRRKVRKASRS
Summary of the method: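 Baculovirus-expressed JMJD2C (aa 2-372, 0.3 nM) was reacted for 30 min at RT with 300 nM biotin-H3K9me3 peptide and 2 μM α-ketoglutarate in HEPES pH 7.3 buffer containing Fe(II), ascorbate and TCEP. After EDTA stop, H3K9me2 product was detected by TR-FRET (Eu-anti-H3K9me2/streptavidin-APC). IC50 was fitted from the 665/615 ratio of 11-point dilutions.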

[5] = biological target: JMJD3 (Homo sapiens, UniProt O15054); test: In vitro enzyme inhibition assay for JMJD3 activity (TR-FRET); type: biochemical
Summary of the method: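 Baculovirus-expressed JMJD3 (AA1043-end), 5 nM, with 250 nM biotin-H3K27me3 peptide and 0.4–2 μM α-ketoglutarate in 50 mM HEPES pH 7.3, 50 μM ascorbate, 5 μM Fe(II); 30 min at RT. EDTA-stopped; H3K27me2 product detected by TR-FRET (Eu-antibody/streptavidin-APC), 665/615 ratio fitted to 11-point IC50.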

[6] = Table 4, cell gives A/B enantiomer values
[7] = Table 5, one class given per A and B pair

| SMILES | IC50 [1] [nM] | IC50 [2] [nM] | IC50 [3, 6] [nM] | IC50 [3, 7] [nM] | IC50 [4, 6] [nM] | IC50 [4, 7] [nM] | IC50 [5, 6] [nM] | IC50 [5, 7] [nM] |
| --- | --- | --- | --- | --- | --- | --- | --- | --- |
| Cc1ccc(N(C)c2ccc3c(c2)CCN[C@@H]3CNc2cnccc2C(=O)O)cc1 [Example 1A, 3-[({(1S)-6-[methyl(4-methylphenyl)amino]-1,2,3,4-tetrahydroisoquinolyl}methyl)amino]pyridine-4-carboxylic acid] | ≤ 100 | 1000 to 10000 | ≤ 100 | ≤ 100 | 100 to 1000 | 100 to 1000 | – | – |
| Cc1cc(OCC(F)(F)F)ccc1-c1ccc2c(c1)CCN[C@@H]2CNc1cnccc1C(=O)O [Example 2A, 3-[({(1S)-6-[2-methyl-4-(2,2,2-trifluoro-ethoxy)phenyl]-1,2,3,4-tetrahydro-isoquinolyl}methyl)amino]pyridine-4-carboxylic acid] | 100 to 1000 | > 10000 | ≤ 100 | ≤ 100 | 1000 to 10000 | 1000 to 10000 | 1000 to 10000 | 1000 to 10000 |
| CCc1ccccc1-c1ccc2c(c1)CN(C)[C@@H]2CNc1cnccc1C(=O)O [Example 22B, (S)-3-(((5-(2-ethylphenyl)-2-methyl-isoindolin-1-yl)methyl)amino) isonicotinic acid] | – | ≤ 100 | – | ≤ 100 | – | 100 to 1000 | – | 1000 to 10000 |

The remaining lines, values ahead:

| IC50 [1] [nM] | IC50 [2] [nM] | IC50 [3, 6] [nM] | IC50 [3, 7] [nM] | IC50 [4, 6] [nM] | IC50 [4, 7] [nM] | IC50 [5, 6] [nM] | IC50 [5, 7] [nM] | SMILES |
| --- | --- | --- | --- | --- | --- | --- | --- | --- |
| 100 to 1000 | > 10000 | ≤ 100 | ≤ 100 | 1000 to 10000 | 1000 to 10000 | 1000 to 10000 | 1000 to 10000 | Cc1cc(OCC(F)(F)F)ccc1-c1ccc2c(c1)CCN[C@H]2CNc1cnccc1C(=O)O [Example 2B, 3-[({(1R)-6-[2-methyl-4-(2,2,2-trifluoroethoxy)phenyl]-1,2,3,4-tetrahydroisoquinolyl)methyl)amino]pyridine-4-carboxylic acid] |
| – | ≤ 100 | – | ≤ 100 | – | 100 to 1000 | – | 1000 to 10000 | CCc1ccccc1-c1ccc2c(c1)CN(C)[C@H]2CNc1cnccc1C(=O)O [Example 22A, (R)-3-(((5-(2-ethylphenyl)-2-methyl-isoindolin-1-yl)methyl)amino) isonicotinic acid] |
